According to ChEMBL document CHEMBL4823282, “Novel Broad-Spectrum Antimicrobial Peptide Derived from Anoplin and Its Activity on Bacterial Pneumonia in Mice” (J Med Chem, 2021):
Converted amounts (≈) assume the structure as drawn. Where a SMILES comes first, the peptide text is derived from it.

What was measured:
Enterococcus faecalis = experiment: Antibacterial activity against Enterococcus faecalis ATCC 29212 incubated for 18 hrs by CLSI based broth dilution method; format: functional
Escherichia coli = experiment: Antibacterial activity against Escherichia coli ATCC 25922 incubated for 18 hrs by CLSI based broth dilution method; format: functional
Pseudomonas aeruginosa [1] = experiment: Antibacterial activity against rifampin-resistant Pseudomonas aeruginosa ATCC 27853 incubated for 18 hrs by CLSI based broth dilution method; format: functional
Klebsiella pneumoniae [2] = experiment: Antibacterial activity against Klebsiella pneumoniae ATCC 700603 incubated for 18 hrs by CLSI based broth dilution method; format: functional
Acinetobacter baumannii = experiment: Antibacterial activity against Acinetobacter baumannii ATCC 19606 incubated for 18 hrs by CLSI based broth dilution method; format: functional; details: ATCC 19606 = CIP 70.34 = JCM 6841
[3] = tested on: Staphylococcus epidermidis; experiment: Antibacterial activity against Staphylococcus epidermidis ATCC 12228 incubated for 18 hrs by CLSI based broth dilution method; format: functional
Staphylococcus aureus [4] = experiment: Antibacterial activity against Staphylococcus aureus ATCC 25923 incubated for 18 hrs by CLSI based broth dilution method; format: functional
Pseudomonas aeruginosa [5] = experiment: Antibacterial activity against gentamicin-resistant Pseudomonas aeruginosa ATCC 27853 incubated for 18 hrs in presence of EDTA by CLSI based broth dilution method; format: functional, organism-based
Pseudomonas aeruginosa [6] = experiment: Antibacterial activity against gentamicin-resistant Pseudomonas aeruginosa ATCC 27853 incubated for 18 hrs by CLSI based broth dilution method; format: functional
Bacillus subtilis = experiment: Antibacterial activity against Bacillus subtilis ATCC 23857 incubated for 18 hrs by CLSI based broth dilution method; format: functional
Pseudomonas aeruginosa [7] = experiment: Antibacterial activity against Pseudomonas aeruginosa ATCC 27853 incubated for 18 hrs by CLSI based broth dilution method; format: functional
Klebsiella pneumoniae [8] = experiment: Bactericidal activity against Klebsiella pneumoniae 700603 at 2MIC by time-kill assay relative to control; format: functional; details: 2M, TDE = time-dependent effect
Staphylococcus aureus [9] = experiment: Bactericidal activity against Staphylococcus aureus ATCC 25923 at 2MIC by time-kill assay; format: functional, organism-based; details: time 24.0 hrs, TDE = time-dependent effect
Bacteria [10] = experiment: Antibacterial activity against bacteria incubated for 18 hrs by CLSI based broth dilution method; format: functional
Fungi = experiment: Antibacterial activity against fungi incubated for 18 hrs by CLSI based broth dilution method; format: functional
[11] = Selectivity ratio of MHC10 for BALB/C mouse erythrocytes to MIC for gram-negative bacteria; format: toxicity
[12] = Cytotoxicity against human glomerular mesangial cells incubated for 12 hrs by MTT assay; format: cell-based; details: Glomerular mesangial cell
[13] = Selectivity ratio of MHC10 for BALB/C mouse erythrocytes to MIC for bacteria; format: toxicity
Pseudomonas aeruginosa [14] = experiment: Synergistic antibacterial activity against Pseudomonas aeruginosa ATCC 27853 at 2 times MIC incubated for 18 to 24 hrs in presence of 2 times MIC of polymyxin B by broth microdilution assay based checkerboard assay; format: functional; details: time 18-24 hrs
Erythrocyte = experiment: Hemolytic activity in BALB/C mouse erythrocytes incubated for 1 hr by absorbance method; format: ADME, cell-based
Bacteria [15] = experiment: Antibacterial activity against Gram-negative bacteria incubated for 18 hrs by CLSI based broth dilution method; format: functional
Bacteria [16] = experiment: Antibacterial activity against Gram-positive bacteria incubated for 18 hrs by CLSI based broth dilution method; format: functional
[17] = Selectivity ratio of MHC10 for BALB/C mouse erythrocytes to MIC for fungi; format: toxicity
[18] = Selectivity ratio of MHC10 for BALB/C mouse erythrocytes to MIC for gram positive bacteria; format: toxicity
Pseudomonas aeruginosa [19] = experiment: Synergistic antibacterial activity against Pseudomonas aeruginosa ATCC 27853 at 2 times MIC incubated for 18 to 24 hrs in presence of 2 times MIC of rifampicin by broth microdilution assay based checkerboard assay; format: functional; details: time 18-24 hrs

Molecule GENTAMICIN has an MIC (Enterococcus faecalis) of 4 µM, an MIC (Escherichia coli) of 4 µM and an MIC (Pseudomonas aeruginosa [1]) of 0.5 µM. The MIC (Klebsiella pneumoniae [2]) was 16 µM, the MIC (Acinetobacter baumannii) was under 1 µM and the MIC [3] was under 1 µM. It also gave an MIC (Staphylococcus aureus [4]) of under 1 µM, an MIC (Pseudomonas aeruginosa [5]) of 8 µM and an MIC (Pseudomonas aeruginosa [6]) of 64 µM. It also gave an MIC (Bacillus subtilis) of under 1 µM and an MIC (Pseudomonas aeruginosa [7]) of 4 µM.

Molecule `CN[C@H](CC(C)C)C(=O)N[C@H]1C(=O)N[C@@H](CC(N)=O)C(=O)N[C@H]2C(=O)N[C@H]3C(=O)N[C@H](C(=O)N[C@H](C(=O)O)c4cc(O)cc(O)c4-c4cc3ccc4O)[C@H](O)c3ccc(c(Cl)c3)Oc3cc2cc(c3O[C@@H]2O[C@H](CO)[C@@H](O)[C@H](O)[C@H]2O[C@H]2C[C@](C)(N)[C@H](O)[C@H](C)O2)Oc2ccc(cc2Cl)[C@H]1O` [VANCOMYCIN] has an MIC (Enterococcus faecalis) of under 1 µM, an MIC (Escherichia coli) of 64 µM (≈ 92.8 µg/mL) and an MIC (Klebsiella pneumoniae [2]) of at least 128 µM. For the same molecule, the MIC (Acinetobacter baumannii) was under 1 µM, the MIC [3] was under 1 µM and the Activity (Klebsiella pneumoniae [8]) was “Tde”. For the same molecule, the MIC (Staphylococcus aureus [4]) was under 1 µM, the Activity (Staphylococcus aureus [9]) was “Tde” and the MIC (Bacillus subtilis) was under 1 µM. It also gave an MIC (Pseudomonas aeruginosa [7]) of 64 µM (≈ 92.8 µg/mL).

`C[C@@H](O)[C@H](NC(=O)[C@H](CCCCN)NC(=O)[C@H](Cc1c[nH]c2ccccc12)NC(=O)[C@H](CCCNC(=N)N)NC(=O)[C@H](CCCCN)NC(=O)[C@H](Cc1ccccc1)NC(=O)[C@H](Cc1ccccc1)NC(=O)CN)C(=O)N[C@@H](Cc1ccccc1)C(=O)N[C@@H](Cc1ccccc1)C(N)=O` (H-GFFKRWKTFF-NH2) gave an MIC (Bacteria [10]) of 19 µM (≈ 25.9 µg/mL), an MIC (Enterococcus faecalis) of 64 µM (≈ 87.2 µg/mL) and an MIC (Escherichia coli) of 16 µM (≈ 21.8 µg/mL). The MIC (Fungi) was 19 µM (≈ 25.9 µg/mL), the MIC (Klebsiella pneumoniae [2]) was 32 µM (≈ 43.6 µg/mL) and the selectivity ratio [11] was 22.6. For the same molecule, the IC50 [12] was 48.2 µM, the selectivity ratio [13] was 26.9 and the MIC (Acinetobacter baumannii) was 64 µM (≈ 87.2 µg/mL). The MIC [3] was 4 µM (≈ 5.45 µg/mL), the FIC (Pseudomonas aeruginosa [14]) was 0.25 and the MIC (Staphylococcus aureus [4]) was 16 µM (≈ 21.8 µg/mL). The MHC10 (Erythrocyte) was “>= 512 uM”, the MIC (Bacteria [15]) was 22.6 µM (≈ 30.8 µg/mL) and the MIC (Bacteria [16]) was 16 µM (≈ 21.8 µg/mL). For the same molecule, the MIC (Bacillus subtilis) was 16 µM (≈ 21.8 µg/mL), the selectivity ratio [17] was 26.9 and the selectivity ratio at 18 h [18] was 32. It also gave an MIC (Pseudomonas aeruginosa [7]) of 16 µM (≈ 21.8 µg/mL) and an FIC (Pseudomonas aeruginosa [19]) of 0.3125.

Molecule `CC(C)C[C@H](NC(=O)[C@H](Cc1c[nH]c2ccccc12)NC(=O)CN)C(=O)N[C@@H](CCCCN)C(=O)N[C@@H](CCCNC(=N)N)C(=O)N[C@@H](Cc1c[nH]c2ccccc12)C(=O)N[C@@H](CCCCN)C(=O)N[C@H](C(=O)N[C@@H](CC(C)C)C(=O)N[C@@H](Cc1c[nH]c2ccccc12)C(N)=O)[C@@H](C)O` (H-GWLKRWKTLW-NH2) has an MIC (Bacteria [10]) of 20.8 µM (≈ 28.5 µg/mL), an MIC (Enterococcus faecalis) of 64 µM (≈ 87.9 µg/mL) and an MIC (Escherichia coli) of 16 µM (≈ 22 µg/mL). The MIC (Fungi) was 20.8 µM (≈ 28.5 µg/mL), the MIC (Klebsiella pneumoniae [2]) was 16 µM (≈ 22 µg/mL) and the selectivity ratio [11] was 20. It also gave an IC50 [12] of 105 µM, a selectivity ratio [13] of 15.4 and an MIC (Acinetobacter baumannii) of 32 µM (≈ 43.9 µg/mL). For the same molecule, the MIC [3] was 32 µM (≈ 43.9 µg/mL), the FIC (Pseudomonas aeruginosa [14]) was 0.25 and the MIC (Staphylococcus aureus [4]) was 16 µM (≈ 22 µg/mL). For the same molecule, the MHC10 (Erythrocyte) was 320 µM, the MIC (Bacteria [15]) was 16 µM (≈ 22 µg/mL) and the MIC (Bacteria [16]) was 26.9 µM (≈ 36.9 µg/mL). For the same molecule, the MIC (Bacillus subtilis) was 16 µM (≈ 22 µg/mL), the selectivity ratio [17] was 15.4 and the selectivity ratio at 18 h [18] was 11.9. The MIC (Pseudomonas aeruginosa [7]) was 16 µM (≈ 22 µg/mL) and the FIC (Pseudomonas aeruginosa [19]) was 0.3125.
